From patent US6469052B2, “Compounds for the photodecontamination of pathogens in blood” (Cerus Corporation, priority 1993, dated 2002)

Tests used:
mouse reticulocytes = settings: increased dose levels, male Balb/c mice, tail vein
Method: Male Balb/c mice were then injected with 0.1 ml of a compound solution via the tail vein. At least 3 mice were injected per dose level. Saline only was used as a negative control. For a positive control, cyclophosphamide (cycloPP) was administered at a dose of 30 mg/kg. In the experimental group, the injections were repeated once per day for four days. In the positive control group, the sample was administered only once, on day three. On day 5, several microliters of blood were withdrawn from each subject and smeared on a glass slide. Cells were fixed in absolute methanol and stored in a slide rack.
For analysis, cells were stained with acridine orange and visualized under a fluorescence microscope by counting: (i) the number of reticulocytes per 5000 erythrocytes; and (ii) the number of micronucleated reticulocytes per 1000 reticulocytes. Reticulocytes were distinguished by their red fluorescence due to the presence of RNA. Micronuclei were distinguished by their green fluorescence due to the presence of DNA. The percentage of reticulocytes (%PCE) was then calculated. A decrease in the frequency of […] in the percentage of reticulocytes, is an indication of bone marrow toxicity. The percentage of reticulocytes with micronuclei (%PCE with MN) was also calculated. An increase in %PCE with MN is a measure of clastogenicity.
After initial results were determined, the experiment was repeated using increased dose levels, until: (i) Micronucleus formation was seen; or (ii) Bone marrow toxicity was observed; or (ii) The lethal dose was reached; or (iv) A dose of 5 g/kg was administered.

[1] = system: Chinese hamster ovary (CHO) cells; test: In vitro genotoxicity screen in CHO cells; format: cell-based; settings: approximately 3 hours exposure in the dark, dilutions 1-1000 μg/ml
Source text: The positive control was methylmethane sulfonate.
Coverslips were mounted with Permount.

Pseudomonus = test: Bacterial inactivation (colony forming units); format: cell-based; settings: 16 μM, after 5 J/cm^2 irradiation, starting titer 6.5 logs, 15% FBS in DMEM
Method: In this example bacterial inactivation by the photoreactive nucleic acid binding compounds of the present invention was measured as a function of the ability of the bacteria to subsequently replicate. A gram negative bacteria was chosen as representative of the more difficult bacterial strains to inactivate.
The bacteria, a strain of Pseudomonus, was innoculated into LB with a sterile loop and grown overnight in a shaker at 37° C. Based on the approximation that one OD at 610 nm is equivalent to 5×10^8 colony forming units (cfu)/mL, a 1:10 dilution of the culture was measured on a spectrophotometer, (manufactured by Shimatsu). The bacterial culture was added to a solution of 15% fetal bovine serum in DMEM to a final bacteria concentration of approximately 10^6/mL. An aliquot (0.8 mL) was transferred to a 1.5 mL snap-top polyethylene tube. An aliquot (0.004-0.040 mL) of the test compound stock solution prepared in water, ethanol or dimethylsulfoxide at 0.80-8.0 mM was added to the tube. Compounds were tested at a concentration of 16 μM. The tubes were placed in a light device as described in EXAMPLE 1 and irradiated with 1.3 J/cm^2, 1.2 J/cm^2, and finally 2.5 J/cm^2, for a total of 5 J/cm^2. […] The colony forming units were then counted the following morning and the titer of the […] remaining after phototreatment was calculated based on the dilution factors. […]

human platelets = settings: 100 μM compound
Method: To measure the effects of the present compounds and methods of decontamination on platelet function using these four indicators, four samples were prepared for each compound tested, two control samples and two containing compound. Three units of human platelets were obtained from the Sacramento Blood Center, Sacramento, Calif. These were each transferred under sterile conditions to 50 ml centrifuge tubes, then aliquots of each unit were transferred into a second set of 50 ml sterile centrifuge tubes. To each centrifuge tube containing platelet concentrate (PC), an aliquot of compound stock was added to reach a final concentration of 100 μM of compound. […] The samples were pipetted gently up and down to mix. Then aliquots (either 3 ml or 8 ml) of each sample was transferred to two sterile Teflon™ Medi-bags™ (American Fluoroseal Co., Silver Springs, Md.) (presently owned by The West Company, Lionville, Pa.). Samples were treated in one of two different sized bags, having either 3 ml or 8 ml capacity. […] For each compound tested, two control samples without compound were prepared by again removing aliquots of platelet concentrate (17 ml if using an 8 ml bag, […] if using a 3 ml bag) from the same one of the first set of 50 ml centrifuge tubes from which the compound sample was drawn, and dividing into Medibags, as before. One of each pair of Medibags containing a compound, and one of each pair of control Medibags, were illuminated for 5 Joules/cm^2 on the device described in Example 1, above. Then all experimental and control Medibags were placed on a platelet shaker for storage for 5 days. The same experiments were repeated several times to obtain more statistically meaningful data, as represented by “n”, the number of data points represented, in the graphs of FIGS. 21-24, discussed below.
A Sysmex cell counter was used to measure platelet count in the platelet samples. Samples were diluted 1:3 in blood bank saline.

| Compound | outcome of dose escalation in the micronucleus assay (mouse reticulocytes) | genotoxic (toxic) concentration [1] | log kill of bacteria (Pseudomonus) | platelet count, Day 5 treated sample versus Day 5 control (human platelets; 5 Joules/cm^2) | platelet count compared with samples treated with light alone (human platelets; 5 Joules/cm^2, 5 days storage) |
| --- | --- | --- | --- | --- | --- |
| Cc1oc2c(C)c3oc(=O)cc(C)c3cc2c1COCCN [Compound 2, 4′-(4-amino-2-oxa)butyl-4,5′,8-trimethylpsoralen] | the acutely lethal dose was reached before there were any signs of bone marrow toxicity or micronucleus formation | 100 µg/mL | > 5.5 logs |  |  |
| Cc1oc2c(C)c3oc(=O)cc(C)c3cc2c1CNCCCCN [Compound 6, 4′-(6-amino-2-aza)hexyl-4,5′,8-trimethylpsoralen] | the acutely lethal dose was reached before there were any signs of bone marrow toxicity or micronucleus formation | 100 µg/mL | > 5.5 logs | counts equivalent to the 5 day control | higher platelet count than samples treated with light alone |
